According to patent US20100221709A1, “METHODS FOR IDENTIFYING AGENTS THAT MODULATE APOPTOSIS IN CELLS THAT OVER-EXPRESS A BCL-2 FAMILY MEMBER PROTEIN” (priority 2005, published 2010):
Like-named read-outs stand apart in the source and are kept apart here.

Tests used:
[1] = test system: TABX2S cells (over-expressing Bcl-xL); experiment: in vitro
Text: (§1) Briefly, a DNA fragment encoding the full-length mouse Bcl-xL cDNA was isolated from the plasmid pBS-BCL-xL (Tzung et al., Am. J. Path. 150:1985-1995 (1997), incorporated herein by reference in its entirety) by digestion with the restriction endonuclease EcoRI. This EcoRI fragment was cloned into the EcoRI site of the mammalian expression vector pSFFV (Fuhlbrigge et al., Proc. Nat. Acad. Sci. USA 85:5649-5653 (1988)) in both sense and antisense orientations, to form expression plasmids pSFFV-Bc/-xL-WT(sense) or pSFFV-Bc/-xL(antisense), respectively. The tumorigenic murine hepatocyte cell line TAMH was transfected by lipofection (Lipofectamine, Life Technologies, Rockville, Md., according to the manufacturer's recommendations) with the plasmids pSFFV-neo (the control), pSFFV-Bc/-xL-WT(sense) or pSFFV-Bc/-xL(antisense). Characterization of and culture conditions for the cell lines have been previously published (Wu et al., Proc. Nat. Acad. Sci. USA 91:674-78 (1994); Wu et al., Cancer Res. 54:5964-5973 (1994)). Transfectants were selected for the acquisition of neomycin resistance by growing cells in the presence of 750 μg/ml of G418. Bulk transfectants were cloned by limiting dilution and individual clones were screened by immunoblot analysis to determine the level of Bcl-xL, protein expression as described below.
(§2) Selected transfectants were then tested for whole cell sensitivity to several apoptotic agents. Transfected cells were cultured to reach approximately 80% confluency prior to plating an equal number of cells from selected clones on 12-well tissue culture plates. The transplanted cells were treated with the following apoptotic agents: 5 μM doxorubicin for 48 hours; 5 μM cisplatin for 48 hours; or with 200 U/ml tumor necrosis factor (TNF) plus 1 μg/ml actinomycin D for 18 hours. Cell viability was determined by trypan blue dye exclusion. The percentage of viable cells was calculated by the number of viable cells (treated with a particular apoptogenic agent) divided by the number in the control group (untreated).
(§3) TABX2S cells and TABX1A cells were also examined for the effects of various mitochondrial inhibitors. […] Azide was diluted from an aqueous stock solution.

[2] = test system: myeloma cell lines (RPMI-8226, U266, NCI-H929); type: cell-based, human
Procedure: Cell survival was assayed by exclusion of propidium iodide (PI) (10 mg/ml) by unfixed cells. Annexin V-FITC (Pharmingen) or 3,3′-dihexyloxacarbocyanine iodide (DiOC6(3)) (Molecular Probes) staining was analyzed together with PI to discriminate early apoptotic cells. Apoptotic cells were also measured as sub-G1 events among ethanol-fixed cells stained with […] PI. All cell samples were analyzed using a benchtop FACSCalibur® (Becton Dickinson, San Jose, Calif.) flow cytometer. Flow data were analyzed using MultiCycle AV software (Phoenix Flow Systems). For intracellular pH measurements, cell pellets were washed once and resuspended in 2 ml of HEPES-buffered medium (no phenol red and no serum). Carboxy-SNARF®-1 acetoxymethyl (AM) ester (Molecular Probes, 1 mM stock in DMSO, stored at −20° C.), a long wavelength fluorescent pH indicator, was added to a final concentration of 10 μM, and the cells were incubated for 30 min at 37° C. Following incubation with SNARF®-1 AM, cells were sedimented and the pellets were held on ice. Immediately before analysis, pellets were resuspended in Earle's balanced salt solution (experimental buffer) or high-[K^+] buffer containing nigericin (calibration samples).

[3] = biological target: T1, recombinant Bcl-2 (Bcl-2ΔC22) (Homo sapiens, UniProt P10415); experiment: Antimycin A3 fluorescence binding and competitive displacement assay; details: antimycin A3 2 μM, competitor 2 μM, Bcl-2 3 μM
T1 construct: poly-His (N); made in house
T1 sequence (P10415 1-217 limits assumed, stated change not applied): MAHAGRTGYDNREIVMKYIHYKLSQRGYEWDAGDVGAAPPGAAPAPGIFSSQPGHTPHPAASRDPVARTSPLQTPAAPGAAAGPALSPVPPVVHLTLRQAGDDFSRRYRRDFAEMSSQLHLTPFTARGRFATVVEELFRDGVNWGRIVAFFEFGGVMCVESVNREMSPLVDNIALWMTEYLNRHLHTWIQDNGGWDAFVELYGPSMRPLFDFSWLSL
Procedure: In this assay, 0 to 5 μM antimycin A3 (Sigma Chemical Co., St. Louis, Mo.) was added to a physiological buffer (50 mM Tris-HCl pH 8.0, 0.2 M NaCl, 2 mM EDTA, 0.5% v/v glycerol) containing recombinant Bcl-2 or Bcl-xL protein under conditions that permitted antimycin A3 to bind to the BH3-binding domain of Bcl-2 or Bcl-xL, (22.5° C. on a Hitachi F-2500 fluorescence spectrofluorimeter equipped with a thermostatted cell holder). […] The excitation wavelength was 335 nm, and the maximum emission wavelength for antimycin A3 was 428 nm with a slit width of 10 nm. The samples were mixed in a quartz cuvette and checked for inner filter effect over the range of antimycin A3 for this study. […]
Recombinant human Bcl-2ΔC22 (a recombinant human […] lacking the C-terminal 22-amino acid residue membrane anchor sequence) and mouse Bcl-xLΔC20 (a murine Bcl-xL lacking the C terminal 20-amino acid residue membrane anchor sequence) fused with poly-His at the N-terminus were chromatographically purified to homogeneity. The concentrations of antimycin A3 and stock solutions of recombinant proteins were quantitated using an extinction coefficient of 7.24/mM/cm at 320 nm and by Bradford assay, respectively. […] For peptide displacement experiments, a solution of 2 μM antimycin A3 and 3 μM Bcl-2 was allowed to reach binding equilibrium at 4° C. prior to fluorescence measurements. […]

in vitro = details: mouse
Text: as §1, §2, §3

[4] = Cell viability by trypan blue dye exclusion; details: mouse
Text: as §1
as §2, with “(untreated). […]” for “(untreated).”

Bcl-xL(ΔC) WT = biological target: T2, Bcl-xL(ΔC) WT (Homo sapiens, UniProt Q07817); experiment: Pore assay, calcein release from large unilamellar vesicles; type: biochemical
T2 construct: inferred from pET22b(+) NdeI/XhoI cloning and nickel-NTA purification) (C); made in house; host or cells: Escherichia coli BL21(DE3) carrying pUB520
T2 sequence (Q07817 1-211 limits assumed, stated change not applied): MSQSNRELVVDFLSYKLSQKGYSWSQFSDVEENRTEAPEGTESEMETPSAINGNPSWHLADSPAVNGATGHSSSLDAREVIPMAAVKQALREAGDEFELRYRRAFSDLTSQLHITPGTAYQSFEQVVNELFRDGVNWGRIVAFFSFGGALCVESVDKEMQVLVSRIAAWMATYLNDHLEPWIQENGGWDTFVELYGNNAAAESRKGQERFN
Procedure: Large unilamellar vesicles composed of 60% dioleoylphophatidylcholine and 40% dioleoylphosphatidylglycerol were prepared by the extrusion method of Mayer et al., supra. Lipid stocks, in chloroform, were mixed and dried under a stream of nitrogen gas. The lipid was resuspended by vortexing for 30 min in a solution of 40 mM calcein (Molecular Probes), 25 mM KCl, and 10 mM KOAc, pH 5.0. After 10 freeze-thaw cycles, the lipid suspension was extruded through two 0.1 μm pore diameter Nucleopore filters. Non-entrapped dye was removed by passage over a Sephadex G10 column (Amersham Biosciences). Lipid concentration was measured using the ammonium ferrothiocyanate method (Stewart, Anal. Biochem. 104:10-14, 1980).
For pore assays, recombinant truncated Bcl-2 family protein or mutant protein (Bcl-xL(ΔC)) (500 nM) was added to large unilamellar vesicles (60 μM lipid concentration) in 100 mM KCl, 10 mM KOAc, pH 5.0, and fluorescence measured (490 nm excitation, 520 nm emission) with a Fluoromax-3 spectrophotometer. Peptides of the BH3 domain were incubated with the Bcl-xL(ΔC) 5 min prior to mixing with liposomes. AA1 was added to liposomes 1 min before adding the Bcl-xL(ΔC) protein. Samples for kinetic assays were analyzed in a thermostatted cuvette at 37° C. with constant stirring. Dose responses were measured in black quartz microplates (Hellma) at room temperature. Calcein release was expressed as percentage of maximum release with detergent lysis (0.1% Triton X-100).

[5] = test system: mitochondria from cells over-expressing Bcl-xL (TABX2S cells); experiment: JC-1 staining of isolated mitochondrial fractions; type: biochemical, murine; details: 2 μg/ml
Procedure: Briefly, at 15 and 30 minutes, 5×10^5 cells were washed, trypsinized and resuspended in 1 ml of growth media. Each sample was stained with 10 μg/ml of JC-1 prepared in DMSO. After 10 minutes of incubation at 37° C., cells were transferred to ice and analysis was performed using a FACScan flow cytometer (Becton Dickinson). The excitation wavelength was 488 nm whereas measurement was performed at 520 and 585 nm for green and red fluorescence, respectively. Green and red fluorescence were measured on FL1 and FL2 channels, respectively. A minimum of 10,000 cells per sample were analyzed. Comparisons were made based on the results of at least three experiments.
Isolated mitochondria were loaded with JC-1 prior to treatment, and mitochondrial labeling was determined using FACS. […] Antimycin A-treated mitochondria with high levels of Bcl-xL had lower levels of JC-1 staining than parallel samples treated with CCCP. Uncoupled mitochondria still retain a significant Donnan potential because of trapped anionic species and it is likely that antimycin-induced PT and/or swelling of mitochondria led to a further reduction of this residual potential.
As observed for the parent compound, antimycin A3, mitochondria with normal levels of Bcl-xL expression were not affected by the 2-methoxy analog.

Cellular O2 consumption = type: cell-based; details: compared to antimycin A3

## C=C(C)[C@H]1Cc2c(ccc3c2O[C@@H]2COc4cc(OC)c(OC)cc4[C@@H]2C3=O)O1 [rotenone]
[1]
  difference in sensitivity of TABX2S and TABX1A cell lines: no significant differences
[2]; 0.5-2.5 mg/ml
  cell killing: none of the myeloma cell lines were killed

## CCCCC1C(=O)OC(C)C(NC(=O)c2cccc(NC=O)c2OCC(=O)c2ccccc2)C(=O)OC(C)C1OC(=O)CC(C)C (centres unmarked) [phenacyl ether antimycin A3]
[3]
  displacement of antimycin A3 from Bcl-2 (antimycin A3 fluorescence): did not displace

## CC(C)[C@@H]1NC(=O)[C@H](C)OC(=O)[C@@H](C(C)C)NC(=O)[C@@H](C(C)C)OC(=O)[C@H](C(C)C)NC(=O)[C@H](C)OC(=O)[C@@H](C(C)C)NC(=O)[C@@H](C(C)C)OC(=O)[C@H](C(C)C)NC(=O)[C@H](C)OC(=O)[C@@H](C(C)C)NC(=O)[C@@H](C(C)C)OC1=O [valinomycin]
[1]
  difference in sensitivity of TABX2S and TABX1A cell lines: no significant differences

## CC[C@H]1/C=C/C=C/C[C@@H](C)[C@H](O)[C@@](C)(O)C(=O)[C@@H](C)[C@H](O)[C@@H](C)C(=O)[C@@H](C)[C@H](O)[C@@H](C)/C=C/C(=O)O[C@@H]2[C@H](C)[C@H](CC1)O[C@]1(CC[C@H](C)[C@H](C[C@@H](C)O)O1)[C@H]2C [oligomycin]
[1]
  difference in sensitivity of TABX2S and TABX1A cell lines: no significant differences
[2]; 2-10 mg/ml
  cell killing: Only H929 cells were killed

## COc1cccc2c1C(=O)c1c(O)c3c(c(O)c1C2=O)C[C@@](O)(C(=O)CO)C[C@@H]3O[C@H]1C[C@H](N)[C@H](O)[C@H](C)O1 [doxorubicin]
In vitro
  viability at 5 µM: 88%
[4]
  viability at 48 h, 5 µM: 50%
[4]; TABX1A cells (TAMH hepatocyte line with Bcl-xL antisense)
  viability at 48 h, 5 µM: 20%

## CC(C)C(C(=O)O)N1C(=O)/C(=C\c2ccc(Br)cc2)SC1=S (centres unmarked) [BH3I-1]
Bcl-xL(ΔC) WT
  effect on Bcl-xL pore-forming activity (FIG. 3A): no effect

## CCCC[C@H]1C(=O)OC(C)C(NC(=O)c2cccc(NC=O)c2OC)C(=O)O[C@@H](C)C1OC(=O)CC(C)C (some centres unmarked) [2-methoxy antimycin A3, antimycin A3 methyl ether]
[1]; TABX2S vs TAMH.neo and TABX1A
  cytotoxicity for cells that over-express Bcl-xL versus control cells: selective cytotoxicity
[3]
  displacement of antimycin A3 from Bcl-2 (antimycin A3 fluorescence): decreased exponentially
[5]
  mitochondrial depolarization (JC-1): strongly depolarized
Cellular O2 consumption
  effect on cellular O2 consumption: negligible effect
